Source: article PMC6434714 (Journal of natural products, 2018)
≈ marks a conversion by molar mass, not a printed value.

Assays:
[1] = tested on: S. aureus subsp. aureus (Newman strain); assay: Antimicrobial activity; conditions: for activity against S. aureus (in words): growth inhibition
[2] = biological target: A. aeolicus MraY (AaMraY) (Aquifex aeolicus, UniProt O66465); assay: Fluorescence-based in vitro MraY assay, A. aeolicus MraY; format: biochemical
Staphylococcal = conditions: cited from earlier work
E. coli imp mutant = conditions: cited from earlier work
S. aureus = conditions: cited from earlier work

Sequence of A. aeolicus MraY (AaMraY) (O66465 whole entry): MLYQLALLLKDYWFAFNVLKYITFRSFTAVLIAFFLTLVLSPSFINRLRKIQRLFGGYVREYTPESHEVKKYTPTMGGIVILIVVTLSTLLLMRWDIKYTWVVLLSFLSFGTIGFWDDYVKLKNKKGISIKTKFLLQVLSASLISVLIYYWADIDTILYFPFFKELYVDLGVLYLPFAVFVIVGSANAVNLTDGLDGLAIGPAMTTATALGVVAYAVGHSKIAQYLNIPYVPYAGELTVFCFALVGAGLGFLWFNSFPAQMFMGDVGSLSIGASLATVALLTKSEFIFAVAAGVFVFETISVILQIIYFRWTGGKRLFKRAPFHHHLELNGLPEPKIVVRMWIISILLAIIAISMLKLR

CO[C@H]1[C@H](O[C@H]([C@H]2O[C@@H](n3ccc(=O)[nH]c3=O)[C@H](O)[C@@H]2O)[C@H](NCCCNC(=O)[C@@H](NC(=O)[C@@H](NC(=O)N[C@H](C(=O)O)C(C)C)[C@@H]2CCNC(=N)N2)[C@@H](OC(=O)CCCCCCCCCCCCC(C)C)C(C)C)C(=O)O)O[C@H](CN)[C@H]1O [Compound 1, muraymycin B8]
MIC ([1]; Staphylococcus aureus, NEWMAN, 16 h, read-out: S. aureus growth inhibition MIC, Newman strain, 37 °C, 16 h): 2 to 6 µg/mL (≈ 1.69 to 5.07 µM) | IC50 [2]: 0.068 nM

CO[C@H]1[C@H](O[C@H]([C@H]2O[C@@H](n3ccc(=O)[nH]c3=O)[C@H](O)[C@@H]2O)[C@H](NCCCNC(=O)[C@@H](NC(=O)[C@@H](NC(=O)N[C@H](C(=O)O)C(C)C)[C@@H]2CCNC(=N)N2)[C@@H](OC(=O)CCCCCCCCCCCCN(O)C(=N)N)C(C)C)C(=O)O)O[C@H](CN)[C@H]1O [Muraymycin A1]
MIC against Staphylococcal (Staphylococcal): 2 to 16 µg/mL | MIC against E. coli imp mutant (E. coli imp mutant): < 0.03 µg/mL

CO[C@H]1[C@H](O[C@H]([C@H]2O[C@@H](n3ccc(=O)[nH]c3=O)[C@H](O)[C@@H]2O)[C@H](NCCCNC(=O)[C@@H](NC(=O)[C@@H](NC(=O)N[C@H](C(=O)O)C(C)C)[C@@H]2CCNC(=N)N2)[C@@H](O)C(C)C)C(=O)O)O[C@H](CN)[C@H]1O [muraymycin C1]
activity against S. aureus (in words) [1]: inactive

CO[C@H]1[C@H](O[C@H]([C@H]2O[C@@H](n3ccc(=O)[nH]c3=O)[C@H](O)[C@@H]2O)[C@H](NCCCNC(=O)[C@@H](NC(=O)[C@@H](NC(=O)N[C@H](C(=O)O)C(C)C)[C@@H]2CCN=C(N)N2)[C@@H](OC(=O)CCCCCCC(C)C)C(C)C)C(=O)O)O[C@H](CN)[C@H]1O [muraymycin B2]
MIC against S. aureus (S. aureus): > 32 µg/mL

CO[C@H]1[C@H](O[C@H]([C@H]2O[C@@H](n3ccc(=O)[nH]c3=O)[C@H](O)[C@@H]2O)[C@H](NCCCNC(=O)[C@@H](NC(=O)[C@@H](NC(=O)N[C@H](C(=O)O)C(C)C)[C@@H]2CCNC(=N)N2)[C@@H](OC(=O)CCCCCCCCCCC(C)C)C(C)C)C(=O)O)O[C@H](CN)[C@H]1O [Compound 2, muraymycin B9]
S. aureus growth inhibition MIC ([1]; Newman strain, 37 °C, 16 h): 2 to 6 µg/mL

CO[C@H]1[C@H](O[C@H]([C@H]2O[C@@H](n3ccc(=O)[nH]c3=O)[C@H](O)[C@@H]2O)[C@H](NCCCNC(=O)[C@@H](NC(=O)[C@@H](NC(=O)N[C@H](C(=O)O)C(C)C)[C@@H]2CCNC(=N)N2)[C@@H](O)C(C)C)C(=O)O)O[C@H](CNC(C)=O)[C@H]1O [Compound 3, 16-N-acetyl-muraymycin C1]
activity against S. aureus (in words) [1]: inactive

CO[C@H]1[C@H](O[C@H]([C@H]2O[C@@H](n3ccc(=O)[nH]c3=O)[C@H](O)[C@@H]2O)[C@H](NCCCNC(=O)[C@@H](NC(=O)[C@@H](NC(=O)N[C@H](C(=O)O)C(C)C)[C@@H]2CCN=C(N)N2)[C@@H](OC(=O)CCCCC(C)C)C(C)C)C(=O)O)O[C@H](CN)[C@H]1O [muraymycin B6]
MIC against S. aureus (S. aureus): > 32 µg/mL
